The values below come from patent publication US6127333A, “Conjugates useful in the treatment of prostate cancer” (priority 1998, dated 2000).

This assay concerns the target T1, York PSA (enzymatically active free PSA) (Homo sapiens, UniProt P07288).
T1 construct: 50% cleavage of the noted oligopeptide-cytotoxic agent conjugates with enzymatically active free PSA
Kind of assay: Recognition/cleavage of oligopeptide-vinca drug conjugates by free PSA. Particulars: PSA digestion buffer pH7.4, conjugate to PSA molar ratio 100 to 1, HPLC; when n > 1 value is an average. It counts as biochemical. Here is the method:
Alternatively, the PSA digestion buffer utilized is 50 mM tris(hydroxymethyl)aminomethane pH7.4, 140 mM NaCl. The reaction is quenched after various reaction times by the addition of trifluoroacetic acid (TFA) to a final 1% (volume/volume). Alternatively the reaction is quenched with 10 mM ZnCl2. The quenched reaction was analyzed by HPLC on a reversed-phase C18 column using an aqueous 0.1%TFA/acetonitrile gradient. […] Unless otherwise indicated, the acetate salt of the conjugate was tested.

T1 sequence (P07288 25-261): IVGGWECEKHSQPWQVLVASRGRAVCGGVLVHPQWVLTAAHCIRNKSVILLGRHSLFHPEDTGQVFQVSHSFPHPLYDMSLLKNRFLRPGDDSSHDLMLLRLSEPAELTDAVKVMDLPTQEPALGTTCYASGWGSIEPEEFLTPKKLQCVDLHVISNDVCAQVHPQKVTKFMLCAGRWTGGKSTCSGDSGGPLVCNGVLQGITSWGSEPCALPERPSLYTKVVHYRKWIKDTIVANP

In the case of “4-des-Acetylvinblastine-23-(N-Acetyl-Ser-Ser-Ser-Chg-Gln-Ser-Val-BDAM) amide acetate salt [Ac-SSSChgQSV-1,4-BDAM-(dAc)-VIN]”, the “Time to 50% Substrate Cleavage by York PSA” value worked out at 10 min. Consider “4-des-Acetylvinblastine-23-(N-methoxy-diethyleneoxyacetyl-4-trans-L-Hyp-Ser-Ser-Chg-Gln-Ser-Val-BDAM) amide acetate salt”, for which the “Time to 50% Substrate Cleavage by York PSA” value stood at 14 min.
